Assay results: patent EP0514268A1, “Substituted amino acid azetidinyl pyridone derivatives, their preparation and use as medicines” (LABORATORIOS DEL DR. ESTEVE, S.A., priority 1991, dated 1992)
In brackets after ≈: the same amount, converted by molar mass.

What was measured:
[1] = tested on: Serr. marcescens ATCC 13880; experiment: Antimicrobial activity, agar dilution; type: cell-based, Serratia marcescens; conditions: Serratia marcescens, ATCC13880, 20 h, Agar Dextrose dilutions, 37°C, 20 heures, read-out: Activité pharmacologique antimicrobienne (concentrations)
Text: (§1) L'activité pharmacologique antimicrobienne de ces composés a été étudiée selon les références exposées ci-dessous.
(§2) Activité pharmacologique antimicrobienne : G.L. Daquet et Y.A. Chabbect, techniques en bactériologie, Vol. 3, Flammarion Médecine-Sciences, Paris 1972, et W.B. Hugo et A.D. Rusell, Pharmaceutical Microbiology, Blackwell Scientific Publications, London, 1977.
(§3) Milieu de culture et solvant : Agar d'antibiotiques n° 1 (Oxoid CM 327) Bouillon de triptone-soja (Oxoid CM 129) Solution Physiologique Ringer 1/4 (Oxoid BR 52) Agar Dextrose (BBL 11165)
(§4) Microorganismes : "Bacillus subtilis" ATCC 6633 "Citrobacter freundii" ATCC 112606 "Enterobacter aerogenes" ATCC 15038 "Enterobacter cloacae" ATCC 23355 "Bacillus cereus" ATCC 1178 "Escherichia coli" ATCC 10799 "Escherichia coli" ATCC 23559 "Klebsiella pneumoniae" ATCC 10031 "Proteus vulgaris" ATCC 8427 "Morg. morganii" ATCC 8019 "Pseudomonas aeruginosa" ATCC 9721 "Pseudomonas aeruginosa" ATCC 10145 "Salmonella typhimurium" ATCC 14028 "Salmonella typhimurium" ATCC 6539 "Serratia marcescens" ATCC 13880 "Shigella flexnerii" ATCC 12022 "Staphylococcusepidermis" ATCC 155-1 "Staphylococcus aureus" ATCC 25178 "Streptococcus faecalis" ATCC 10541.
(§5) Chacun des microorganismes est ensemencé par strie dans des tubes d'Agar d'antibiotiques n° 1, et mis en incubation pendant 20 heures à 37°C. Ensuite, on prend une anse de culture, on ensemence dans un bouillon de Triptone-soja et on incube pendant 20 heures à 37°C. On dilue à 1/4 la culture obtenue avec une solution physiologique Ringer, de façon à obtenir une suspension normalisée de […] pour chaque organisme.
(§6) A partir d'une solution de 100 µg/ml, chaque produit est dilué dans l'Agar Dextrose (préalablement fondu et maintenu à 50°C) par dilutions successives de façon à obtenir les concentrations suivantes : 64-32-16-8-4-2-1-0,5-0,25-0,125 µg de dérivé/ml du milieu.
(§7) Postérieurement, chaque concentration de chaque produit est répartie dans des boîtes de Petri de 10 cm de diamètre, à raison de 10 ml de milieu par boîte et autant de boîtes que de microorganismes à tester.
(§8) Une fois le milieu refroidi, les boîtes sont ensemencées avec les inoculations à raison de 0,4 ml d'inoculation par boîte. On les étend avec une anse de Driglasky et on recueille le surnageant. Les boîtes ensemencées sont incubées à 37°C pendant 20 heures.
(§9) Les résultats obtenus sont décrits dans les tableaux suivants. Les concentrations sont données en µg/ml.

[2] = tested on: Morg. morganii ATCC 8019; experiment: Antimicrobial activity, agar dilution; type: cell-based; conditions: Morganella morganii, ATCC8019, 20 h, Agar Dextrose dilutions, 37°C, 20 heures, read-out: Activité pharmacologique antimicrobienne (concentrations)
Text: as §1, §2, §3, §4, §5, §6, §7, §8, §9

[3] = tested on: Staph. epidermidis ATCC 155-1; experiment: Antimicrobial activity, agar dilution; type: cell-based; conditions: Staphylococcus epidermidis, ATCC155, 20 h, Agar Dextrose dilutions, 37°C, 20 heures, read-out: Activité pharmacologique antimicrobienne (concentrations)
Text: as §1, §2, §3, §4, §5, §6, §7, §8, §9

[4] = tested on: Proteus vulgaris ATCC 8427; experiment: Antimicrobial activity, agar dilution; type: cell-based; conditions: Proteus vulgaris, ATCC8427, 20 h, Agar Dextrose dilutions, 37°C, 20 heures, read-out: Activité pharmacologique antimicrobienne (concentrations)
Text: as §1, §2, §3, §4, §5, §6, §7, §8, §9

[5] = tested on: Bacillus cereus ATCC 11778; experiment: Antimicrobial activity, agar dilution; type: cell-based; conditions: Bacillus cereus, ATCC11778, 20 h, Agar Dextrose dilutions, 37°C, 20 heures, read-out: Activité pharmacologique antimicrobienne (concentrations)
Text: as §1, §2, §3, §4, §5, §6, §7, §8, §9

[6] = tested on: Shigella flexnerii ATCC 12022; experiment: Antimicrobial activity, agar dilution; type: cell-based; conditions: ATCC12022, 20 h, Agar Dextrose dilutions, 37°C, 20 heures, read-out: Activité pharmacologique antimicrobienne (concentrations)
Text: as §1, §2, §3, §4, §5, §6, §7, §8, §9

[7] = tested on: Bacillus subtilis ATCC 6633; experiment: Antimicrobial activity, agar dilution; type: cell-based; conditions: ATCC6633, 20 h, Agar Dextrose dilutions, 37°C, 20 heures, read-out: Activité pharmacologique antimicrobienne (concentrations)
Text: as §1, §2, §3, §4, §5, §6, §7, §8, §9

[8] = tested on: Ps. aeruginosa ATCC 10145; experiment: Antimicrobial activity, agar dilution; type: cell-based; conditions: Pseudomonas aeruginosa, ATCC10145, 20 h, Agar Dextrose dilutions, 37°C, 20 heures, read-out: Activité pharmacologique antimicrobienne (concentrations)
Text: as §1, §2, §3, §4, §5, §6, §7, §8, §9

[9] = tested on: Ps. aeruginosa ATCC 9721; experiment: Antimicrobial activity, agar dilution; type: cell-based; conditions: Pseudomonas aeruginosa, ATCC9721, 20 h, Agar Dextrose dilutions, 37°C, 20 heures, read-out: Activité pharmacologique antimicrobienne (concentrations)
Text: as §1, §2, §3, §4, §5, §6, §7, §8, §9

[10] = tested on: Sal. typhi ATCC 6539; experiment: Antimicrobial activity, agar dilution; type: cell-based; conditions: Salmonella enterica, 20 h, read-out: Activité pharmacologique antimicrobienne (concentrations)
Text: as §1, §2, §3, §4, §5, §6, §7, §8, §9

[11] = tested on: Escherichia coli ATCC 23559; experiment: Antimicrobial activity, agar dilution; type: cell-based; conditions: Escherichia coli, ATCC23559, 20 h, Agar Dextrose dilutions, 37°C, 20 heures, read-out: Activité pharmacologique antimicrobienne (concentrations)
Text: as §1, §2, §3, §4, §5, §6, §7, §8, §9

[12] = tested on: Escherichia coli ATCC 10799; experiment: Antimicrobial activity, agar dilution; type: cell-based; conditions: Escherichia coli, ATCC10799, 20 h, Agar Dextrose dilutions, 37°C, 20 heures, read-out: Activité pharmacologique antimicrobienne (concentrations)
Text: as §1, §2, §3, §4, §5, §6, §7, §8, §9

[13] = tested on: Ent. cloacae ATCC 23355; experiment: Antimicrobial activity, agar dilution; type: cell-based, Enterobacter cloacae; conditions: Enterobacter cloacae, ATCC23355, 20 h, Agar Dextrose dilutions, 37°C, 20 heures, read-out: Activité pharmacologique antimicrobienne (concentrations)
Text: as §1, §2, §3, §4, §5, §6, §7, §8, §9

[14] = tested on: Citr. freundii ATCC 11606; experiment: Antimicrobial activity, agar dilution; type: cell-based, Citrobacter freundii; conditions: Citrobacter freundii, ATCC11606, 20 h, Agar Dextrose dilutions, 37°C, 20 heures, read-out: Activité pharmacologique antimicrobienne (concentrations)
Text: as §1, §2, §3, §4, §5, §6, §7, §8, §9

[15] = tested on: Sal. typhimurium ATCC 14028; experiment: Antimicrobial activity, agar dilution; type: cell-based, Salmonella typhimurium; conditions: Salmonella enterica, 20 h, Agar Dextrose dilutions, 37°C, 20 heures, read-out: Activité pharmacologique antimicrobienne (concentrations)
Text: as §1, §2, §3, §4, §5, §6, §7, §8, §9

[16] = tested on: Strep. faecalis ATCC 10541; experiment: Antimicrobial activity, agar dilution; type: cell-based, Streptococcus faecalis; conditions: Enterococcus faecalis, ATCC10541, 20 h, Agar Dextrose dilutions, 37°C, 20 heures, read-out: Activité pharmacologique antimicrobienne (concentrations)
Text: as §1, §2, §3, §4, §5, §6, §7, §8, §9

[17] = tested on: Ent. aerogenes ATCC 15038; experiment: Antimicrobial activity, agar dilution; type: cell-based, Enterobacter aerogenes; conditions: Klebsiella aerogenes, ATCC15038, 20 h, Agar Dextrose dilutions, 37°C, 20 heures, read-out: Activité pharmacologique antimicrobienne (concentrations)
Text: as §1, §2, §3, §4, §5, §6, §7, §8, §9

[18] = tested on: Staph. aureus ATCC 25178; experiment: Antimicrobial activity, agar dilution; type: cell-based, Staphylococcus aureus; conditions: Staphylococcus aureus, ATCC25178, 20 h, Agar Dextrose dilutions, 37°C, 20 heures, read-out: Activité pharmacologique antimicrobienne (concentrations)
Text: as §1, §2, §3, §4, §5, §6, §7, §8, §9

[19] = tested on: Kleb. pneumoniae ATCC 10031; experiment: Antimicrobial activity, agar dilution; type: cell-based, Klebsiella pneumoniae; conditions: Klebsiella pneumoniae, ATCC10031, 20 h, Agar Dextrose dilutions, 37°C, 20 heures, read-out: Activité pharmacologique antimicrobienne (concentrations)
Text: as §1, §2, §3, §4, §5, §6, §7, §8, §9

[20] = Solubility in water and at pH 7.4; type: physicochemical
Text: Un grand nombre des composés de l'invention manifestent une augmentation de la solubilité dans l'eau ainsi que de la solubilité à pH 7,4 lorsqu'on compare avec les composés de référence. L'augmentation de solubilité au pH physiologique peut favoriser l'absorption du produit et la solubilité élevée dans l'eau permet l'administration du composé par voie parentérale.

Row | Structure (SMILES) | MIC [1] [µg/mL] | MIC [2] [µg/mL] | MIC [3] [µg/mL] | MIC [4] [µg/mL] | MIC [5] [µg/mL] | MIC [6] [µg/mL] | MIC [7] [µg/mL] | MIC [8] [µg/mL] | MIC [9] [µg/mL] | MIC [10] [µg/mL] | MIC [11] [µg/mL] | MIC [12] [µg/mL] | MIC [13] [µg/mL] | MIC [14] [µg/mL] | MIC [15] [µg/mL] | MIC [16] [µg/mL] | MIC [17] [µg/mL] | MIC [18] [µg/mL] | MIC [19] [µg/mL] | solubility ([20]; pH 7) [µg/mL] | also measured
1 | C[C@H](N)C(=O)N[C@@H](C)C(=O)N[C@@H]1CN(c2nc3c(cc2F)c(=O)c(C(=O)O)cn3C2CC2)[C@H]1C [Exemple 4aAA] | 8 (≈ 16.9 µM) | 4 (≈ 8.43 µM) | 8 (≈ 16.9 µM) | 8 (≈ 16.9 µM) | 16 (≈ 33.7 µM) | 2 (≈ 4.22 µM) | 1 (≈ 2.11 µM) | > 16 | > 16 | 2 (≈ 4.22 µM) | 2 (≈ 4.22 µM) | 2 (≈ 4.22 µM) | 2 (≈ 4.22 µM) | 2 (≈ 4.22 µM) | 2 (≈ 4.22 µM) | > 16 | 2 (≈ 4.22 µM) | 4 (≈ 8.43 µM) | 8 (≈ 16.9 µM) | > 500 | solubility ([20]; water): > 500 µg/mL
2 | NCC(=O)NC1CN(c2nc3c(cc2F)c(=O)c(C(=O)O)cn3-c2ccc(F)cc2F)C1 [Exemple 4bG] | 16 (≈ 35.8 µM) | 4 (≈ 8.94 µM) | 2 (≈ 4.47 µM) | 8 (≈ 17.9 µM) | 1 (≈ 2.24 µM) | 0.5 (≈ 1.12 µM) | 1 (≈ 2.24 µM) | > 32 | 16 (≈ 35.8 µM) | 1 (≈ 2.24 µM) | 0.5 (≈ 1.12 µM) | 2 (≈ 4.47 µM) | 1 (≈ 2.24 µM) | 1 (≈ 2.24 µM) | 4 (≈ 8.94 µM) | 16 (≈ 35.8 µM) | 1 (≈ 2.24 µM) | 1 (≈ 2.24 µM) | 1 (≈ 2.24 µM) | 7.6 (≈ 17 µM) | solubility ([20]; water): > 500 µg/mL
3 | C[C@H](N)C(=O)NC1CN(c2nc3c(cc2F)c(=O)c(C(=O)O)cn3-c2ccc(F)cc2F)C1 [Exemple 4bA, chlorhydratede l'acide 7-(3-Ala-amino-1-azétidinyl)-1-(2,4-difluorophényl)-6-fluoro-1,4-dihydro-4-oxo-1,8-naphtyridine-3-carboxylique] | 8 | 2 | 4 | 8 | 4 | 1 | 0.5 | 16 | 8 | 1 | 1 | 2 | 1 | 1 | 2 | 8 | 1 | 1 | 1 | 66.9 | solubility ([20]; water): 128 µg/mL
